Reference: patent US20240309018A1, “THIAZOLE-LACTAM-SPIROHETEROCYCLIC COMPOUNDS AND APPLICATIONS THEREOF” (D3 BIO (WUXI) CO., LTD, priority 2021, published 2024)

Test system: monkey plasma albumin
Experiment: Plasma protein binding (ultracentrifugation), monkey; further: tested at 0.2 µM
Format: in vitro ADME
Method: The binding degree of the assay compound to human/mouse/rat/canine/monkey plasma albumin was studied.
• 1) Matrix preparation: on the day of the assay, plasma was thawed in cold water and centrifuged at 3220 rpm for 5 min to remove all clots. The pH of the resulting plasma was measured and adjusted to 7.4±0.1 using 1% phosphoric acid or IN sodium hydroxide as needed. • 2) Dilution procedure for the assay compound: the assay compound was dissolved in dimethyl sulfoxide (DMSO) to prepare stock solutions with concentrations of 10 mM and 2 mM, respectively. A 40 μM working solution was prepared by diluting 2 μL of stock solution (2 mM) with 98 μL of DMSO. A 400 μM working solution of the control compound was prepared by diluting 10 μL of stock solution with 240 μL of DMSO. The working solution of the compound (5 μL) was mixed well with a blank matrix (995 μL) at a ratio of 1:200 to prepare a loading matrix.
• a) An equal volume of 30 μL of loading matrix (n=2) was transferred to a sample collection plate to prepare a time 0 (TO) sample for residue determination. The sample was immediately matched with the corresponding blank buffer to a final volume of 60 μL, and the volume ratio of plasma to buffer in each well was 1:1. […] The mixture was centrifuged at 4000 rpm for 20 min and 100 μL of supernatant from each sample was analyzed by LC-MS/MS.

Cc1cccc(CN2C(=O)c3nc(-c4nc(Nc5ccnn5C)ncc4C)sc3C23COC3)n1 [WX001]
Plasma protein binding rate (unbound %): 14.2%
